Reference: PubChem BioAssay (NCI)
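Protocol summary: plate cells (96-well), add compound at 5 concentrations, incubate 48 h, interpolate endpoints linearly. GI50 marks 50% less growth. At the TGI there is no net growth.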

What was measured:
Assay in all cases: inhibition of tumour cell growth, NCI panel, 48 h
K-562 leukemia = test system: K-562 leukemia
HCC-2998 colon = test system: HCC-2998 colon
HCT-15 colon = test system: HCT-15 colon
M14 melanoma = test system: M14 melanoma
LOX IMVI melanoma = test system: LOX IMVI melanoma
SK-OV-3 ovarian = test system: SK-OV-3 ovarian
SNB-75 CNS = test system: SNB-75 CNS
SF-539 CNS = test system: SF-539 CNS
PC-3 prostate = test system: PC-3 prostate
MDA-MB-435 = test system: MDA-MB-435

Row | Structure (SMILES) | TGI (K-562 leukemia) [µM] | TGI (HCC-2998 colon) [µM] | TGI (HCT-15 colon) [µM] | TGI (M14 melanoma) [µM] | TGI (LOX IMVI melanoma) [µM] | TGI (SK-OV-3 ovarian) [µM] | TGI (SNB-75 CNS) [µM] | TGI (SF-539 CNS) [µM] | GI50 (K-562 leukemia) [µM] | GI50 (SF-539 CNS) [µM] | GI50 (HCC-2998 colon) [µM] | GI50 (M14 melanoma) [µM] | GI50 (PC-3 prostate) [µM] | GI50 (LOX IMVI melanoma) [µM] | GI50 (MDA-MB-435) [µM] | TGI (MDA-MB-435) [µM] | GI50 (SNB-75 CNS) [µM] | GI50 (HCT-15 colon) [µM] | GI50 (SK-OV-3 ovarian) [µM]
1 | O=C(NCCCCNc1cccccc1=O)OCc1ccccc1 | > 100 | > 100 | > 100 | > 100 | > 100 | > 100 | > 100 | – | – | – | – | – | – | – | – | – | – | – | –
2 | CC1=C(C(=O)Nc2cc(=O)n(C)c(=O)n2C)C(c2ccco2)C(C(=O)Nc2cc(=O)n(C)c(=O)n2C)=C(C)N1 | > 100 | > 100 | – | > 100 | > 100 | – | > 100 | > 100 | – | – | – | – | – | – | – | – | – | – | –
3 | C[C@]12C[C@H](CCCCCCNCCOC(=O)NCCCc3ccc(N(CCCl)CCCl)cc3)C3=C4CCC(=O)C=C4CCC3C1CC[C@@H]2O (stereo partly drawn) | 1.07 | 3.23 | – | 7.29 | 2.27 | – | 2.91 | 3.33 | 0.308 | 1.4 | 1.81 | 2.9 | 1.17 | 1.06 | 2.38 | 6.53 | 1.46 | – | –
4 | CCOC(=O)c1nn2c(nc1=O)sc1ccc3ccccc3c12 | > 100 | > 100 | > 100 | > 100 | > 100 | > 100 | > 100 | > 100 | – | – | – | – | – | – | – | – | – | – | –
5 | C[C@H](NC(=O)[C@@H](C)N)[C@H](Oc1ccc2c(cnn2-c2ccc(F)cc2)c1)c1ccc2c(c1)OCCO2 | 4.7 | 3.66 | 4.44 | 3.3 | 3.41 | 13.5 | 10.8 | 3.54 | 1.98 | 1.65 | 1.78 | 1.68 | – | 1.78 | 1.61 | 3.24 | 3.15 | 1.98 | 0.208
6 | CS(=O)(=O)OC1CCC2(C#N)CCC1C2=O (stereo not drawn) | > 100 | > 100 | > 100 | > 100 | > 100 | > 100 | > 100 | > 100 | – | – | – | – | – | – | – | – | – | – | –
7 | NC(=O)C(=O)N/N=C1\C(=O)N(c2ccc(Cl)cc2Cl)C(=O)C1C(=O)Nc1ccc(Cl)cc1Cl (stereo not drawn) | > 100 | > 100 | > 100 | > 100 | > 100 | > 100 | > 100 | > 100 | – | – | – | – | – | – | – | – | – | – | –
8 | Cc1cccc(/C=C/c2c(C(=O)/C=C/c3ccccc3)c(C)nc3ccccc23)c1 | – | 3.49 | 3.57 | – | 2.93 | – | 2.95 | 3.12 | – | 1.71 | 1.73 | – | – | 1.58 | 1.81 | 4.29 | 1.42 | 1.26 | –
9 | N.N.N.N.N.NC(=O)c1nn[n-]n1.[Cl-].[Co+3] | > 100 | > 100 | > 100 | > 100 | > 100 | > 100 | > 100 | > 100 | > 100 | > 100 | > 100 | > 100 | – | > 100 | – | – | > 100 | > 100 | > 100
